# From US10253002B2, “Compounds and methods of treating infections” (Neoculi Pty Ltd., priority 2013, dated 2019)
# Several values for one entry are separate records, joined by “and”; a condition that tells them apart may be missing. Equal values may be shown once. Read-outs that look alike come from different tables or passages of the source.
# Assays:
# [1] = system: Staphylococcus aureus T3-129 / Staphylococcus spp. MK1; assay: Synergy studies, checkerboard method (FIC index); format: cell-based; conditions: Staphylococcus spp. Strain MK1
# [2] = system: DNA synthesis in S. aureus ATCC 29213; assay: Macromolecular synthesis assay: DNA synthesis ([3H] thymidine); format: cell-based, Staphylococcus aureus; conditions: control; 8 fold the MIC (0.5 μg/mL)
# Method: Cells were grown at 35° C. overnight on Trypticase Soy agar. A colony from the plate was used to inoculate 10 ml of Mueller Hinton broth II (MHBII), and the culture was grown to early exponential growth phase (OD600==0.2 to 0.3) while incubating in a shaker at 35° C. and 200 rpm.
# When cells reached early exponential phase, 100 μL of culture was added to triplicate wells containing various concentrations of test compound or control antibiotics (5 μL) at 20× the final concentration in 100% DMSO. A 5% DMSO treated culture served as the “no drug” control for all experiments. Cells were added in MHBII at 105% to account for the volume of drug added to each reaction or in M9 minimal medium for protein synthesis reactions. Following 15 min incubation at room temperature, either [^3H] thymidine (DNA synthesis), [^3H] uridine (RNA synthesis) or [^3H] leucine (protein synthesis) was added at 0.5-1.0 μCi per reaction, depending on the experiment. Reactions were allowed to proceed at room temperature for 15-30 min and then stopped by adding 12 μL of cold 5% trichloroacetic acid (TCA) or 5% TCA/2% casamino acids (protein synthesis only). Reactions were incubated on ice for 30 min and the TCA precipitated material was collected on a 25 mm GF/A filter. After washing three times with 5 ml of cold 5% TCA, the filters were rinsed two times with 5 mL 100% ethanol, allowed to dry, and then counted using a Beckman LS3801 liquid scintillation counter.
# [3] = system: Escherichia coli; assay: Broth microdilution MIC, Example 7 (NCL812 and analogues); format: cell-based; conditions: 24 hours; for MIC (μg/ml) at 24 hours, E. coli: 1st and 2nd replicate rows
# [4] = system: Pseudomonas aeruginosa; assay: as above; format: cell-based; conditions: 24 hours
# [5] = system: MRSA; assay: as above; format: cell-based, Staphylococcus aureus; conditions: for activity against MRSA among analogues: MIC testing, two MRSA strains; for MIC (μg/ml) at 24 hours, MRSA 1: isolate MRSA 1; for MIC (μg/ml) at 24 hours, MRSA 1 / MIC (μg/ml) at 24 hours, MRSA 2: 1st and 2nd replicate rows; for MIC (μg/ml) at 24 hours, MRSA 2: isolate MRSA 2; for MIC: Staphylococcus aureus, MRSA
# Method in brief: (§1)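 Duplicates per isolate, repeated a third time if >one two-fold dilution apart. MIC50, MIC20 and range calculated per bacterial group.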
# [6] = system: VRE; assay: as above; format: cell-based, Enterococcus spp.; conditions: for activity against VRE among analogues: MIC testing, two VRE strains; for MIC (μg/ml) at 24 hours, VRE 1: isolate VRE 1; for MIC (μg/ml) at 24 hours, VRE 1 / MIC (μg/ml) at 24 hours, VRE 2: 1st and 2nd replicate rows; for MIC (μg/ml) at 24 hours, VRE 2: isolate VRE 2; for MIC: Enterococcus, VRE
# Method in brief: as §1
# [7] = system: Gram-negative bacteria (E. coli and Pseudomonas aeruginosa); assay: Testing of NCL812 analogues, Gram-negative antibacterial activity; format: cell-based; conditions: MIC testing
# Method: Minimum inhibitory concentrations (μg/ml) were determined using the broth microdilution method recommended by the Clinical and Laboratory Standards Institute (CLSI). MIC breakpoints were determined by visual assessment and then confirmed using an ELISA plate reader, measuring absorbance levels at 600 nm. Bacterial growth (turbidity) in the wells with antimicrobial was compared with the amount of growth (turbidity) in the growth-control well (containing no antimicrobial). All isolates were tested in duplicate, if there was a difference of greater than one two-fold dilution in the results, the test was repeated a third time. The purity of the isolates was closely monitored during testing by subculturing the prepared bacterial inoculum onto SBA (sheep blood agar). The MICs of the control strains for the antimicrobial ampicillin were determined for each testing run as an internal quality control. The MIC50, […] and MIC range (minimum and maximum) were calculated for each of the bacterial groups.
# MICs were determined against two MRSA strains, two VRE strains and one strain each of E. coli and Pseudomonas aeruginosa.
# [8] = Bioassay ranking of the analogues tested; conditions: M + R (MRSA and VRE combined)
SMILES,"MIC (μg/ml) at 24 hours, E. coli [3]","MIC (μg/ml) at 24 hours, P. aeruginosa ([4]; 1st and 2nd replicate rows) [µg/mL]",activity against MRSA among analogues [5],"MIC (μg/ml) at 24 hours, MRSA 1 ([5]; 24 hours) [µg/mL]","MIC (μg/ml) at 24 hours, MRSA 2 ([5]; 24 hours) [µg/mL]",activity against VRE among analogues [6],"MIC (μg/ml) at 24 hours, VRE 1 ([6]; 24 hours) [µg/mL]","MIC (μg/ml) at 24 hours, VRE 2 ([6]; 24 hours)",level of Gram-negative antibacterial activity among analogues [7],further results
O=C(O)c1cn(C2CC2)c2cc(N3CCNCC3)c(F)cc2c1=O [Ciprofloxacin],,,,,,,,,,FICI ([1]; FIC index of antibiotic with NCL812): 0.75 and 0.525 and 0.625 and 0.562; Antibiotic MIC Alone ([1]; antibiotic alone): 0.125 µg/mL and 0.25 µg/mL; Result (interaction with NCL812) ([1]; antibiotic with NCL812): NE (No effect (NE) was defined as 0.5<FICI<4); inhibition of DNA synthesis [2]: approximately 51%
Cl.N=C(N)N/N=C/c1ccc(C(F)(F)F)cc1 [NCL041],128 µg/mL and 64 µg/mL,128,greatest activity,64,64,greatest activity,64,64 µg/mL,highest level of Gram-negative antibacterial activity,
Cl.N=C(N)N/N=C/c1cccc(C(F)(F)F)c1 [NCL043],128 µg/mL,128,greatest activity,128,128,greatest activity,128,128 µg/mL and 64 µg/mL,highest level of Gram-negative antibacterial activity,
Cc1ccc(/C=N/NC(=N)N)cc1.Cl [NCL044],>128 µg/mL,128,greatest activity,128,128,greatest activity,128,128 µg/mL,highest level of Gram-negative antibacterial activity,
Cl.N=C(N)N/N=C/c1cccc(Cl)c1 [NCL052],>128 µg/mL,128,greatest activity,128,128,greatest activity,128,128 µg/mL,highest level of Gram-negative antibacterial activity,
Cl.N=C(N)NN=Cc1ccc(F)cc1 [NCL053],>128 µg/mL,128,,>128,>128,,>128,>128 µg/mL,highest level of Gram-negative antibacterial activity,
"Cl.N=C(N/N=C/c1cc(O)c(O)c(O)c1)N/N=C/c1cc(O)c(O)c(O)c1 [NCL097, 2,2′-bis[(3,4,5-trihydroxyphenyl)methylene]carbonimidic Dihydrazide Hydrochloride]",,,greatest activity,,,greatest activity,,,highest level of Gram-negative antibacterial activity,"MIC ([3]; Escherichia coli, read-out: MIC (μg/ml) at 24 hours, E. coli, duplicate lines per compound): > 128 µg/mL; MIC (μg/ml) at 24 hours, P. aeruginosa ([4]; P. aeruginosa, duplicate lines per compound, Hydrochloride): >128 µg/mL; MIC ([4]; Pseudomonas aeruginosa, 24 h, read-out: MIC (μg/ml) at 24 hours, P. aeruginosa, duplicate lines per compound): 128 µg/mL; MIC ([5]; 24 h, read-out: MIC (μg/ml) at 24 hours, MRSA 1, MRSA 1, 24 hours, duplicate lines per compound): 128 µg/mL; MIC ([5]; 24 h, read-out: MIC (μg/ml) at 24 hours, MRSA 2, MRSA 2, 24 hours, duplicate lines per compound): 32 µg/mL; MIC ([6]; 24 h, read-out: MIC (μg/ml) at 24 hours, VRE 1, VRE 1, 24 hours, duplicate lines per compound): 32 µg/mL; MIC ([6]; 24 h, read-out: MIC (μg/ml) at 24 hours, VRE 2, VRE 2, 24 hours, duplicate lines per compound): 32 µg/mL"
"CCCC/C(=N\NC(=N)N)c1ccc(Cl)cc1.Cl [NCL188, (E)-2-(1-(4-chlorophenyl)pentylidene)hydrazine-1-carboximidamide Hydrochloride]",,,greatest activity,,,greatest activity,,,highest level of Gram-negative antibacterial activity,"M + R [8]: 16 µg/mL; MIC ([5]; bioassay ranking, read-out: MRSA): 16 µg/mL; MIC ([6]; bioassay ranking, read-out: VRE): 16 µg/mL"
